We go through six compounds from patent US4923882A, “Novel amine derivatives, salts thereof and an anti-ulcer agent containing the same” (Toyama Chemical Co., Ltd., priority 1982, dated 1990).

Assay [1] has as its system gastric acid secretion. Put plainly: Inhibitory effect on gastric acid secretion, pylorus ligation method (histamine). In kind it is in vivo, Wistar strain rats. Particulars: Rattus norvegicus, oral, histamine 25 mg/kg s.c., read-out: Inhibition percentage (gastric acid secretion). As to the method: Five to six Wistar strain rats (male, 190 to 230 g) per group were starved for 35 hours, after which each drug was orally administered, and after 2 hours, the pylorus of each rat was ligated under ether anesthesia. […] After 3 hours, each rat was killed, after which the cardiac portion was ligated, and the stomach was removed. After 1 ml of distilled water was injected into the stomach, the gastric juice was collected by centrifugation and its volume was measured. The acidity of the gastric juice was measured by titrating 1 ml of the gastric juice with a 0.1N aqueous sodium hydroxide solution, taking pH 7.0 as the end-point. Physiological saline was administered to a control group.
The inhibition percentage of gastric acid secretion was determined from the following equation: [formula]

The next assay deals with Indomethacin ulcer. The experiment in a line: Anti-ulcer activity: Indomethacin ulcer. The note with it: for Potency ratio: Cimetidine = 1; for ED50: 5 h, Indomethacin ulcer, read-out: ID50 (the source's name). Type of assay: in vivo, Wistar strain rats. On the procedure: Six Wistar strain rats (male, 200 to 250 g) per group were starved for 24 hours, after which each drug was orally administered, and after 30 minutes, Indomethacin was injected subcutaneously at a dose of 30 mg/kg. After 5 hours, each rat was killed, and the stomach was removed and fixed with 3% formalin, after which the lengths of ulcers formed in the stomach was measured under the binocular stereoscopic microscope (10×), and the sum total of the lengths was taken as the ulcer index. To a control group was administered 0.5% Tween 80 physiological saline. The inhibition percentage was determined from the following equation: [formula]

Assay [2] concerns gastric acid secretion. The experiment in a line: Inhibitory effect on gastric acid secretion, perfused stomach preparation of anesthetized rat (histamine stimulated). In kind it is in vivo, Wistar strain rats. The note with it: intravenous; for ED100: Rattus norvegicus, cumulative, histamine 30 μg/kg/min, read-out: Dose for complete inhibition; for Duration: time from complete inhibition until pH of perfusate became 4. As to the method: (i) Perfused stomach preparation of anesthetized rat [according to M. N. Ghosh and H. O. Schild: Brit. J. Pharmacol. 13, 54 (1958)]
Wistar strain rats (male, 200 to 250 g) starved for 18 hours were anesthetized with urethane and then subjected to laparotomy, after which the forestomach region of the stomach of each rat was incised. The whole interior of the stomach was sufficiently washed with physiological saline, and the cut edges were sutured. A silicon tube was inserted into the stomach to a length of about 5 mm from the duodenum side and fixed. Subsequently, the stomach was perfused with physiological saline adjusted to a pH of about 10 with an aqueous sodium hydroxide solution at a constant rate (1 ml/min) through an oral sonde, and the change in pH of the perfusate which had flowed out through the silicone tube was continuously recorded. During the perfusion, histamine (30 μg/kg/min) was continuously injected, as an agent for stimulating gastric acid secretion, through the femoral vein at a rate of 0.3 ml/min. Each drug was intravenously administered when the acid secretion became almost constant (pH 3.3±0.2), and cumulatively administered when the inhibition of acid secretion at each dose reached a plateau.
The number of experiments was three for each dose.

The subject of assay [3] is Mepirizole-induced duodenal ulcer. The experiment in a line: Anti-ulcer activity: Mepirizole-induced duodenal ulcer. In kind it is in vivo, Wistar strain rats. As to the method: (ii) Mepirizole-induced duodenal ulcer
A test was carried out according to the method of Okabe et al. [S. Okabe et al., Gastrcenterology, 80, 1241 (1981)].
Six Wistar strain rats (male, 200 to 250 g) per group were starved for 24 hours, after which each drug was orally administered, and after 30 minutes, mepirizole was injected subcutaneously at a dose of 200 mg/kg. After 18 hours, the stomach and duodenum were removed and fixed with 3% formalin, after which the areas and depths of the ulcers formed in the duodenum were measured under the binocular stereoscopic microscope (10×). The scores were given in 7 grades depending on the areas and depths of the ulcers, and the sum total of the scores was taken as the ulcer index. The scores were given as follows:
That is to say, the score is 0 at an ulcer area of 0 to 0.2 mm^2, 1 at 0.2 to 1.0 mm^2, 2 at 1 to 3 mm^2, 3 at 3 to 6 mm^2, 4 at 6 to 10 mm^2,5 at 10 mm^2 or more, the ulcer in the condition immediately before perforation is scored as 6, and the ulcer which had caused perforation is scored as 7.
(§1) To a control group was administered 0.5% Tween 80 physiological saline. The inhibition percentage was determined from the following equation: [formula]

The test system of another assay is Reserpine ulcer. Put plainly: Anti-ulcer activity: Reserpine ulcer. Particulars: oral; for ED50: Rattus norvegicus, 18 h, reserpine ulcer, read-out: ID50 (the source's name). In kind it is in vivo, Wistar strain rats. On the procedure:
An experiment was carried out according to the method of Adami et al. [E. Adami et al., Arch. int.
Ten Wistar strain rats (male, 180 to 200 g) per group were starved for 30 hours, after which each drug was orally administered, and after 1 hour, reserpine was injected subcutaneously at a dose of 10 mg/kg. After 18 hours, the stomach was removed and fixed with 3% formalin, and thereafter the lengths of the ulcers formed in the stomach were measured with callipers. The measured values were converted to the scores described below, and the sum total of the scores was taken as the ulcer index.
That is to say, 1 to 5 pin point ulcers are scored as 1, 6 or more pin point ulcers are scored as 2, ulcers of 1 mm or less in length are scored as 1, ulcers of 1 to 2 mm in length are scored as 2, ulcers of 2 to 4 mm in length are scored as 4, and ulcers of 4 mm or more in length are scored as 8.
as §1

Assay [4] relates to Stress ulcer induced by water-immersion. The experiment in a line: Anti-ulcer activity: Stress ulcer induced by water-immersion. In kind it is in vivo, Wistar rats. Particulars: for Inhibition percentage / ED50: oral; for Potency ratio: Cimetidine = 1; for ED50: Rattus norvegicus, 15 h, water-immersion stress ulcer, read-out: ID50 (the source's name). As to the method: (iii) Stress ulcer induced by water-immersion
An experiment was carried out according to the method of Takagi et al. [K. Takagi et al., Jap.
Six Wistar rats (male, 230 to 280 g) per group were starved for 24 hours, after which each drug was orally administered. After 30 minutes, the rats were placed in stress cage, immersed in water at 23° C. to the depth of xiphoid, and allowed to stand therein for 15 hours. Thereafter, the stomach of each rat was removed and then fixed with 3% formalin, after which the areas of the ulcers formed were measured under the binocular stereoscopic microscope (10×), and the sum total of the areas was taken as the ulcer index. To a control group was administered 0.5% Tween 80 physiological saline.
The inhibition percentage was determined from the following equation: [formula]

For assay [5], the system named is isolated guinea pig atrium. The experiment in a line: Effect on isolated guinea pig atrium (histamine-induced heart rate). On the set-up: species or system Hartley guinea pig. The note with it: for Potency ratio: Cimetidine = 1; for IC50: right atrium, 5×10^-6 M histamine, 30° C., read-out: ID50 (the source's name). On the procedure: Hartley guinea pig (male, 300 to 400 g) was killed by blood-letting, immediately after which the heart was isolated, and the right atrium was separated in a Krebs-Henseleit solution and used as a preparation. […] The preparation was trained in a bath fluid, and after the heart rate became constant, 5×10^-6 M of histamine was administered. After the heart rate became constant, each drug was administered cumulatively.
The inhibition percentage was determined from the following equation: [formula] HRmin : heart rate before the administration of histamine HRmax : heart rate after the administration of histamine
HRx : heart rate at the time of the administration of each drug.
The number of experiments were five for each dose.

For the compound `CNC(=C[N+](=O)[O-])NCCSCc1ccc(CN(C)C)o1` [Ranitidine, reference compound], the inhibition in vivo at 3 mg/kg in the assay with gastric acid secretion [1] came out at 17%. The inhibition in vivo at 10 mg/kg in the assay on gastric acid secretion [1] (10 mg/kg) came out at 56%; with Indomethacin ulcer (Rattus norvegicus, 10 mg/kg, oral, read-out: Inhibition percentage) it was 18%. The inhibition in vivo at 30 mg/kg in the assay on gastric acid secretion [1] (30 mg/kg) worked out at 91%; in the assay on Indomethacin ulcer (Rattus norvegicus, 30 mg/kg, oral, read-out: Inhibition percentage), 98%. For the same compound, the Potency ratio in the assay with Indomethacin ulcer came to 1.8; in assay [3] (Cimetidine = 1) it was 5.1; in assay [4], 2.4. Moreover, the ED50 in the assay with Indomethacin ulcer (Rattus norvegicus, oral) turned out to be 15.5 mg/kg; in assay [3] (Rattus norvegicus, 18 h, oral, mepirizole-induced duodenal ulcer, read-out: ID50 (the source's name)), 32 mg/kg; in assay [4], 6.4 mg/kg. The ED100 in the assay with gastric acid secretion [2] is 0.5 mg/kg. In the assay on gastric acid secretion [2], this compound yielded a Duration of 92 min. In addition, the Inhibition percentage came to 49% in assay [3] (30 mg/kg, oral); 78% in assay [3] (100 mg/kg, oral); 33% in the assay with Reserpine ulcer (30 mg/kg); 40% in the assay with Reserpine ulcer (100 mg/kg); 7% in assay [4] (3 mg/kg); 80% in assay [4] (10 mg/kg).

Turning to `CN(C)Cc1ccc(CSCCNC(=C[N+](=O)[O-])NCC(O)c2ccccc2F)o1` (centres unmarked) [compound 4, N-{2-[[5-(dimethylamino)methyl-2-furyl]methylthio]ethyl}-N'-[2-(2-fluorophenyl)-2-hydroxyethyl]-2-nitro-1,1-ethenediamine], the inhibition in vivo at 3 mg/kg in the assay on gastric acid secretion [1] came to 75%. Also, in the assay on gastric acid secretion [2], the ED100 was 0.04 mg/kg and the Duration is listed as 220 min. In assay [5], the Potency ratio stood at 14.9 and the IC50 came out at 225 nM.

For the compound `O=[N+]([O-])C=C(NCCCOc1cccc(CN2CCCCC2)c1)NCC(O)c1ccc2c(c1)OCO2` (centres unmarked) [compound 17, N-[2-hydroxy-2-(3,4-methylenedioxyphenyl)ethyl]-2-nitro-N'-[3-(3-piperidinomethylphenoxy)propyl]-1,1-ethenediamine], in the assay on gastric acid secretion [1], the inhibition in vivo at 3 mg/kg was 70%. Further, in the assay on gastric acid secretion [2], the ED100 was found to be 0.15 mg/kg and the Duration is recorded as over 280 min. For the same compound, in assay [5], the Potency ratio is 15.4 and the IC50 was found to be 218 nM.

Consider `Cc1cccc(C(O)CNC(=C[N+](=O)[O-])NCCSCc2cc(C)c(CN(C)C)s2)c1` (centres unmarked) [compound 29, N-{2-[[5-(dimethylamino)methyl-4-methyl-2-thienyl]methylthio]ethyl}-N'-[2-hydroxy-2-(3-methylphenyl)ethyl]-2-nitro-1,1-ethenediamine], for which the inhibition in vivo at 1 mg/kg in the assay on gastric acid secretion [1] was found to be 56%; in the assay on Indomethacin ulcer (Rattus norvegicus, 1 mg/kg, oral, read-out: Inhibition percentage), 57%. The values for the Potency ratio (in the assay with Indomethacin ulcer; in assay [4]) were 31.3 and 11.1, respectively. Besides, the ED50 is 0.88 mg/kg with Indomethacin ulcer (Rattus norvegicus, oral); 4.7 mg/kg in the assay with Reserpine ulcer; 1.4 mg/kg in assay [4]. The inhibition in vivo at 0.3 mg/kg in the assay with Indomethacin ulcer (Rattus norvegicus, 0.3 mg/kg, oral, read-out: Inhibition percentage) turned out to be 8%. Moreover, the ED100 with gastric acid secretion [2] is 0.3 mg/kg. The Duration in the assay on gastric acid secretion [2] was over 177 min. Besides, the Inhibition percentage is recorded as 21% in the assay on Reserpine ulcer (1 mg/kg), 41% with Reserpine ulcer (3 mg/kg), 37% in assay [4] (1 mg/kg) and 78% in assay [4] (3 mg/kg).

As to `Cc1cc(CSCCNC(=C[N+](=O)[O-])NCC(O)c2cccc(C(F)(F)F)c2)sc1CN(C)C` (centres unmarked) [compound 33, N-{2-[[5-(dimethylamino)methyl-4-methyl-2-thienyl]methylthio]ethyl}-N'-[2-hydroxy-2-(3-trifluoromethylphenyl)ethyl]-2-nitro-1,1-ethenediamine], the inhibition in vivo at 1 mg/kg in the assay with gastric acid secretion [1] was found to be 55%. Besides, the ED100 in the assay with gastric acid secretion [2] stood at 0.3 mg/kg. This compound also gave a Duration in the assay with gastric acid secretion [2] of over 240 min. For the same compound, the Inhibition percentage with Reserpine ulcer (1 mg/kg) is on record as 42%; with Reserpine ulcer (3 mg/kg), 68%; in assay [4] (1 mg/kg), 32%; in assay [4] (3 mg/kg), 75%. Also, the ED50 stood at 1.4 mg/kg in the assay with Reserpine ulcer and 1.58 mg/kg in assay [4]. For the same compound, in assay [4], the Potency ratio was 9.8.

For `CCc1ccc(C(O)CNC(=C[N+](=O)[O-])NCCSCc2cc(C)c(CN(C)C)s2)cc1` (centres unmarked) [compound 42, N-{2-[[5-(dimethylamino)methyl-4-methyl-2-thienyl]methylthio]ethyl}-N'-[2-(4-ethylphenyl)-2-hydroxyethyl]-2-nitro-1,1-ethenediamine], the inhibition in vivo at 1 mg/kg in the assay on gastric acid secretion [1] is 57%. In assay [5], the Potency ratio is 14.1 and the IC50 amounted to 237 nM.
